Assay results as given in patent US5663207A, “Gem-dichlorocyclopropanes as antitumor agents” (priority 1995, dated 1997).
“Also recorded” adds a separate entry of the source. Where two headings read alike, the source gives them in different places.

Columns and labels:
[1] = Stability observed during isolation and storage; assay type: physicochemical; details: on concentration, drying or storage
Experimental: The structures of all compounds were supported by their proton NMR spectra, which were measured on either a Varian EM-360A or XL-300 spectrometer. The spectra are reported in parts per million in CDCl3 unless otherwise noted, with tetramethysilane as the internal standard. Infrared spectra were obtained from KBr pellets on a Beckman Acculab 1 spectrometer and were consistent with the assigned structures. Silica gel (for example, obtained commercially from J. T. Baker) of approximately 40 μm diameter was used for flash chromatography (STILL, W. C., KAHN, M. AND MITRA, A. (1978), "Rapid chromatographic technique for preparative separations with moderate resolutions", Journal of Organic Chemistry, 43, 2923), which was performed at 5-10 psi. Petroleum ether was of bp 30°-60° C. When necessary, solvents or reagents were dried by appropriate methods. Evaporations were carried out in vacuo on a rotary evaporator or under a stream of dry N2. Melting points were taken on a Thomas-Hoover capillary melting point apparatus and are uncorrected. Reaction progress and product purity were monitored by analytical TLC on strips of Eastman Kodak plastic-backed SiO2 60 F254 or Al2 O3 F254. Developed strips were viewed under light of 254 and 365 nm wavelengths. Elemental analyses were done by Midwest Microlab Ltd., Indianapolis, IN. Acceptable elemental results are denoted in Table I by the formula, followed by the elements analyzed. Melting points and yields of all compounds were based on pure samples unless otherwise noted, are listed in Table I. Para-Bromoanisole, p-methoxydeoxybenzoin, anisole, p-methoxybenzaldehyde, and 2,3-bis-(p-methoxyphenyl)-acrylic acid and trans-p-methoxystilbene (the olefin), were purchased from Aldrich & Co. The cyclopropanes 1,1-dichloro-cis-2-(p-hydroxyphenyl)-3-phenylcyclopropane (9), and its trans isomer 1,1-dichloro-trans-2-(p-Hydroxyphenyl)-3phenylcyclopropane (17) were prepared from Compounds 8 & 16, respectively. […] Tamoxifen was obtained from Stuart Pharmaceuticals, Division of ICI Americas, Inc., Wilmington, Del. 19897. MER 25 was obtained from the Merrell Dow Research Institute, Division of Merrell Dow Pharmaceuticals, Inc., Cincinnati, Ohio. Protein Assay Reagent, Pierce Chemical Co., Rockford, Ill. 61105. Diethylstilbestrol, β-estradiol, EDTA, DL-dithiothreitol, Sodium molybdate, and Tris (hydroxymethyl) aminomethane hydrochloride were purchased from Sigma Chemical Co., St. Louis, Mo. 63178.
Essentially, the intermediate olefin acids (Compounds 6 & 12) were obtained from a mixed Perkin and Knoevenagel-type condensation involving the reaction of p-methoxyaldehyde (Compound 4) with phenylacetic acid (Compound 5), or p-methoxyphenylacetic acid (Compound 11) in triethylamine and acetic anhydride. To prepare cis-p-methoxystilbene (Compound 7) or bis-(p-methoxy)-cis-stilbene (Compound 13). Decarboxylation of 6 & 12 with quinoline (prevents isomerizations; KLEIN, J. AND MEYER, A. Y. (1964), "The decarboxylation of α-cyano-and α-carboxycinnamic acids", Journal of Organic Chemistry, 29, 1038), and copper chromite at elevated temperature provided 7 & 13. High temperature during distillation caused 8% isomerization to the trans-isomer (15), which was isolated by column chromatography. Dichlorocarbene generation used the catalytic phase transfer method (21, 37) (used extensively in our laboratory) of 50% aqueous solution of NaOH, CHCl3 and benzyltriethylammonium chloride (TEBA) as the anion transfer agent. […]

[2] = test system: MCF-7 human breast cancer cells; details: cited from earlier work; for MCF-7 Inhibition: 10^-6 M, Day et al., J. Med. Chem. 34, 842-851 (1991)
estrogen receptor [3] = target: T1, estrogen receptor (Rattus norvegicus, UniProt P06211); details: relative to estradiol = 100%; Day et al., J. Med. Chem. 34, 842-851 (1991); cited from earlier work
T1 construct: ovariectomized rat uterine cytosolic estrogen receptor preparation; from tissue; host or cells: uterine cytosol of ovariectomized Sprague-Dawley rats (immature rats from Sasco are named as uterus source, mature ovariectomized rats)
T1 sequence (P06211 1-600): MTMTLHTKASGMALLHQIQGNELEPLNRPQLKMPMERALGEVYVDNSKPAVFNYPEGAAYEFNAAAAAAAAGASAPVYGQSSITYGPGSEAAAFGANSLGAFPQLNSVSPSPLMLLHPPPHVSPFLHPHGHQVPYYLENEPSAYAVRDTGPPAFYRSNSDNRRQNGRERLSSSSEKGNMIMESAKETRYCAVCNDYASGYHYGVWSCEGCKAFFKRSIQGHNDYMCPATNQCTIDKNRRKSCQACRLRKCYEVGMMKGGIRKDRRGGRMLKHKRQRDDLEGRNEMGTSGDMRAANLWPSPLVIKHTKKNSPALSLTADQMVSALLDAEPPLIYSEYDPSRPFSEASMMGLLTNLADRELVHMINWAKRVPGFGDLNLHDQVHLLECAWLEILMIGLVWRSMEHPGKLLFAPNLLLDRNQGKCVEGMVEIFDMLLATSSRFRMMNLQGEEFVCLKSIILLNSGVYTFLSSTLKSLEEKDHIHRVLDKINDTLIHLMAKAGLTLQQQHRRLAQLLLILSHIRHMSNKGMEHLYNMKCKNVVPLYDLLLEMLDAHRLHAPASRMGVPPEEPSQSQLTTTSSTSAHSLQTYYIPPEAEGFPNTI

[4] = test system: MCF-7 human breast cancer cells; assay: In vitro MCF-7 human breast cancer cell growth inhibition assay; assay type: cell-based
Excerpt: (§1) The biological evaluation of the test compounds consisted of the in vitro rat cytosolic estradiol receptor binding assay, the in vivo immature mouse uterotrophic (estrogenic) and antiuterotrophic (antiestrogenic) assays, and the in vitro suppression of the proliferation of the ER positive MCF-7 human breast cancer cell line. Estradiol (pure agonist), TAM (agonist in mice and antagonist in MCF-7), MER 25 (pure antagonist) and Analog II (antagonist in mice) were used in the assay as standards.
MCF-7 (estrogen-receptor positive) human breast cancer cells (obtained from the Michigan Cancer Foundation, Detroit, Mich.) were grown at 37° C. in 75 cm^2 tissue culture (T-75) flasks, as monolayer cultures in RPMI 1640 phenol red-free media supplemented with 2 mM L-glutamine, gentamicin (50 μg/mL), penicillin (100 units/mL), streptomycin (100 μg/mL ) and calf serum (5%). Cultures were grown in an incubator 37° C. in a humid 5% CO2 atmosphere, and fed on alternate days. Expotential growth was maintained by subculturing at eight day intervals when the cells per T-75 flask reached 10 to 12×10^6 cells. Cells were trypsinized, washed and plated in multiwell plates at a density of 5×10^4 cells/well in 3 mL of RPMI 1640 media. The cells were allowed to attach and were in logarithmic growth when the test compounds were added. The test compounds (10^-6 M) in the presence or absence of a 10-fold lower dose of estradiol were dissolved in a polyethylene glycol 400: ethanol (55:45) mixture and added in the culture media in duplicate. Control samples received vehicle alone at the same concentration used in the treatment groups. The final concentration of the vehicle mixture was 0.1% of the incubation media. Cell growth was measured on alternate days using the hemocytometric trypan blue exclusion method. Percent inhibition of MCF-7 cells was calculated as the ratio of the control mean cell count per well minus the treatment group mean cell count per well to the control mean cell count per well, multiplied by 100.
^b % MCF7 inhibition was calculated as follows: […]
Thirteen compounds, Analog II, TAM, and MER 25 were tested for their antiproliferative activity in the MCF-7 human breast cancer cell line (Table II). Compounds were tested at a concentration of 10^-6 M in the presence or absence of 10^-7 M estradiol to assess their ability to alter the growth of the calls (Table II). The 10^-6 M concentration was selected since it was reported that the inhibition of the MCF-7 cells by antiestrogens and TAM occurred either at that concentration or less, and were both selective and estrogen receptor specific. Concentrations of antiestrogens greater than 5×10^-6 M were reported to have nonspecific cytotoxic effects (BRIAND, P. AND […], A. E. (1984), "Effect of estrogen and antiestrogen on the human breast cancer cell line MCF-7 adapted to growth at low serum concentration", Cancer Research, 44, 1114).

estrogen receptor [5] = target: T1, estrogen receptor; assay: Receptor binding assay: displacement of [3H]-estradiol from rat uterine cytosol; parameters: species or system rat (Sprague-Dawley); details: relative to estradiol = 100%; average of duplicate determinations minus nonspecific binding
Excerpt: as §1
(§2) Vital-free immature female Swiss-Webster mice were obtained at 17-19 days of age from Sasco weighing 8-10 g, and were used in the uterotrophic and antiuterotrophic assays. Immature female Sprague-Dawley rats, obtained at 17-19 days of age from Sasco, weighing 28-33 g, were used as sources of uteri for the estradiol receptor binding assay. Animals were housed in wire topped polycarbonate cages at six animals per cage, with the environment controlled at 25° C. and a 12 h light/dark cycle. The animals received a diet of Wayne Lab Blox rodent chow and tap water ad libitum.
The RBAs of the test compounds were determined by the displacement of [^3 H]-estradiol in vitro, as described previously (DAY, B. W., […], R. A., JAIN, P., PENTO, J. T., MOUSISSIAN, G. K. AND MEYER, K. L. (1991), "Synthesis and biological evaluation of a series of 1,1-dichloro-2,2,3-triarylcyclopropanes as pure antiestrogens", Journal of Medicinal Chemistry, 34, 842; KORENMAN, S. G. (1969), "Comparative binding affinity of estrogens and its relation to estrogenic potency", Steroid, 13, 163). Mature female Sprague-Dawley rats were ovariectomized at least two weeks prior to the receptor binding experiment. Each test compound was assayed at three concentrations in duplicate over a range of 10^-3 -10^-5 M and 10^-6 -10^-8 M for the estradiol standard. The non-specific binding was determined by a parallel incubation of each compound with the addition of diethylstilbestrol to give a final concentration of 2×10^-5 M DES which was sufficient to saturate all the estrogen receptors present in the cytosolic fraction. Specific displacement for each compound was determined by subtraction of nonspecific displacement from total displacement. The [^3 H]-estradioldisplacement curve for each test compound was determined by linear repression analysis and plotted graphically. The relative binding affinity for each compound was calculated (BLISS, C.I. (1967), "The statistics in biology", McGraw Hill, Inc: New York).
^a Determined by competitive radiometric binding assay with rat
uterine cytosol as a source of receptor, [^3 H]estradiol as tracer,
and dextrancoated charcoal as absorbant for free ligand.
^c Binding affinities are expressed relative to that of estradiol =
100% (RBA = relative binding affinity) and are the average of duplicate
determinations minus nonspecific binding.
The relative binding affinities (RBAs), as determined by the competitive radiometric binding assay and measured by [^3 H]-estradiol displacement from the ovariectomized rat uterine cytosolic estrogen receptor preparation, after subtracting non-specific receptor binding, were calculated for all of the synthesized target compounds, TAM, MER 25, Analog II, and estradiol. The displacement curves were plotted as percent receptor-bound [^3 H]-estrodiol versus concentration of test compounds (not shown) and the receptor binding affinity of each compound is presented in Table II.

[6] = test system: Immature Swiss-Webster female mice (uterine weight); assay: Uterotrophic assay for estrogenic activity in immature mice; assay type: in vivo, mouse (Swiss-Webster); details: doses of 5, 25 and 100 μg (total dose)
Excerpt: The biological evaluation of the test compounds consisted of the in vitro rat cytosolic estradiol receptor binding assay, the in vivo immature mouse uterotrophic (estrogenic) and antiuterotrophic (antiestrogenic) assays, and the in vitro suppression of the proliferation of the ER positive MCF-7 human breast cancer cell line.
as §2
Immature Swiss-Webster female mice (8-15 g) at 17-19 days of age were used. Estradiol was used in the dosage range of […] (total dose) as the assay standard. Each cyclopropyl analogue was examined at doses of 5, 25, and 100 μg (total dose). […] Estrogenic activity was measured as an increase in uterine weight produced by each test compound.

For `Oc1ccc([C@H]2[C@@H](c3ccccc3)C2(Cl)Cl)cc1` (relative stereo) [Compound 9, 1,1-dichloro-cis-2-(p-hydroxyphenyl)-3-phenylcyclopropane], the “stability (in words)” value [1] was “instability to air and light; also recorded: underwent gradual color changes when concentrated”.

In the case of `Oc1ccc([C@H]2[C@H](c3ccccc3)C2(Cl)Cl)cc1` (relative stereo) [Compound 17, 1,1-dichloro-trans-2-(p-hydroxyphenyl)-3-phenylcyclopropane], the “stability (in words)” value [1] was “underwent gradual color changes when concentrated”.

For `ClC1(Cl)[C@H](c2ccccc2)[C@@H]1c1ccccc1` [Analog II], the “MCF-7 Inhibition” value [2] is given as 20.4% and the “RBA (relative binding affinity)” value (estrogen receptor [3]) is given as 0.01%.

For `Oc1ccc(C2(c3ccc(O)cc3)C(c3ccccc3)C2(Cl)Cl)cc1` (centres unmarked) [Compound 36], the “stability (in words)” value [1] was “Drying of phenol 36 at a high temperature resulted in the formation of an indene”.

With `CC(=O)Oc1ccc(C2(c3ccc(OC(C)=O)cc3)C(c3ccccc3)C2(Cl)Cl)cc1` (centres unmarked) [Compound 37, 1,1-Dichloro-2,2-bis-(p-acetoxyphenyl)-3-phenylcyclopropane] the “effect on MCF-7 cell growth (in words)” value ([4]; 10^-6 M) was “did not alter cell growth”, the inhibition at 1 µM ([4]; Homo sapiens, MCF7, read-out: MCF-7 Inhibition) was under 10% and the “RBA (relative binding affinity)” value (estrogen receptor [5]) was 0.08%. For the same compound, the “uterine weight response (estrogenic activity, in words)” value [6] was “well below the control group”.

For `CC/C(=C(\c1ccccc1)c1ccc(OCCN(C)C)cc1)c1ccccc1` [Tamoxifen], the “MCF-7 Inhibition” value [2] is given as 25.6% and the “concentration at which inhibition of MCF-7 cells occurred” value ([2]; reported as selective and estrogen receptor specific) is given as ≤ 10^-6 M.
